# Assay results reported in ChEMBL document CHEMBL1136873, “Application of combinatorial biocatalysis for a unique ring expansion of dihydroxymethylzearalenone” (Bioorg Med Chem Lett, 2009).
# Activity calls are given as the source filed them. The calls are words filed in the database; no cut-off is given here.
# Molecular target: T1, Tyrosine-protein kinase Lck (Homo sapiens, UniProt P06239)
# Assay: Inhibition of LCK at 10 uM
# Target sequence in this assay (P06239 2-509 limits assumed): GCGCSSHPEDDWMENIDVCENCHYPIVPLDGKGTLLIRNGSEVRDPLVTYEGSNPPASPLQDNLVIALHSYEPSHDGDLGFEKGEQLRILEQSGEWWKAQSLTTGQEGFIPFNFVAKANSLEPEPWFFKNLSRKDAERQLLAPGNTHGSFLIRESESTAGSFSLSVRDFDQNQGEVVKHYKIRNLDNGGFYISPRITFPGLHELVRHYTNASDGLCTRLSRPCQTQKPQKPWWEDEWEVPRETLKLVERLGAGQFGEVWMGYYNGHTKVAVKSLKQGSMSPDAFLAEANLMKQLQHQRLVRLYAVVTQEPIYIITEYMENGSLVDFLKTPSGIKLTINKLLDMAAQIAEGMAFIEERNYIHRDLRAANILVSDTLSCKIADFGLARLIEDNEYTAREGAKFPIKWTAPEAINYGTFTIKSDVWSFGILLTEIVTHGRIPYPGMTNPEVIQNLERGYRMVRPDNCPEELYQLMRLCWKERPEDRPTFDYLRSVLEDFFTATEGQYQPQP
row,Activity,SMILES
1,inactive,COc1cc(O)c2c(c1)/C=C/CC(=O)OCc1cccc(c1)COC(=O)CCC[C@H](C)OC2=O
2,inactive,COc1cc(O)c2c(c1)/C=C/CC(=O)NCCCN(C)CCCNC(=O)CCC[C@H](C)OC2=O
3,inactive,COc1cc(O)c2c(c1)/C=C/CC(=O)OCCCOCCCOC(=O)CCC[C@H](C)OC2=O
4,inactive,COc1cc(O)c2c(c1)/C=C/CC(=O)NCCCCCCCNC(=O)CCC[C@H](C)OC2=O
5,inactive,COc1cc(O)c2c(c1)/C=C/CC(=O)OCCCCCCCCOC(=O)CCC[C@H](C)OC2=O
6,inactive,COc1cc(O)c2c(c1)/C=C/CC(=O)NCCCOCCCNC(=O)CCC[C@H](C)OC2=O
7,inactive,COc1cc(O)c2c(c1)/C=C/CC(=O)OCCC1(CCCCC1)CCOC(=O)CCC[C@H](C)OC2=O
8,inactive,COc1cc(O)c2c(c1)/C=C/CC(=O)NCCCCNC(=O)CCC[C@H](C)OC2=O
9,inactive,COc1cc(O)c2c(c1)/C=C/CC(=O)OCCCCCCOC(=O)CCC[C@H](C)OC2=O
10,inactive,COc1cc(O)c2c(c1)/C=C/CC(=O)OCCCC(c1ccccc1)(C(C)O)CCCOC(=O)CCC[C@H](C)OC2=O (stereo not given in full)
11,inactive,COc1cc(O)c2c(c1)/C=C/CC(=O)OC/C=C(\C)CC/C=C(\C)COC(=O)CCC[C@H](C)OC2=O
12,inactive,COc1cc(O)c2c(c1)/C=C/CC(=O)OCCOCC#CCOCCOC(=O)CCC[C@H](C)OC2=O
13,inactive,COc1cc(O)c2c(c1)/C=C/CC(=O)NCCCOCCCCOCCCNC(=O)CCC[C@H](C)OC2=O
14,inactive,COc1cc(O)c2c(c1)/C=C/CC(=O)OCCOC(=O)CCC[C@H](C)OC2=O
15,inactive,COc1cc(O)c2c(c1)/C=C/CC(=O)OC/C=C\COC(=O)CCC[C@H](C)OC2=O
16,inactive,COc1cc(O)c2c(c1)/C=C/CC(=O)OCCCC(c1ccccc1)(C(O)c1ccccc1)CCCOC(=O)CCC[C@H](C)OC2=O (stereo not given in full)
17,inactive,COc1cc(O)c2c(c1)/C=C/CC(=O)OCCCCOC(=O)CCC[C@H](C)OC2=O

# Molecular target: T1, Tyrosine-protein kinase Lck
# Target sequence in this assay (P06239 whole entry): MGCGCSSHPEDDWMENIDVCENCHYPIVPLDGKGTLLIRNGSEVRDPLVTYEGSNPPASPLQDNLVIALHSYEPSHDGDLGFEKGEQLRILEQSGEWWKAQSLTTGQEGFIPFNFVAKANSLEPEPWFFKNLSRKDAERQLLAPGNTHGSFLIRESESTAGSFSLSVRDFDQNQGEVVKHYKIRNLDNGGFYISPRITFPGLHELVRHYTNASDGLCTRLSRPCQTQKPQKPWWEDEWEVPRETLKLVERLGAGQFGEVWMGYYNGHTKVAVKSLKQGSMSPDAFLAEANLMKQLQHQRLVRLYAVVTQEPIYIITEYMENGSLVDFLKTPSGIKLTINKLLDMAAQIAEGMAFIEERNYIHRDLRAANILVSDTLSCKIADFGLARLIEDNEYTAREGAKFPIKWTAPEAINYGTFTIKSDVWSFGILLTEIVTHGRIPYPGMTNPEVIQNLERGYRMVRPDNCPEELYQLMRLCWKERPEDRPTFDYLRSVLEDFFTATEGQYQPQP
row,SMILES,IC50 [µM]
1,"COc1cc(O)c2c(c1)CCCC(O)[C@H](O)C(=O)/C=C\C[C@H](C)OC2=O (single isomer, unassigned)",0.75
2,COc1cc(O)c2c(c1)/C=C/C[C@@H](O)[C@H](O)C(=O)CCC[C@H](C)OC2=O [DIHYDROXYMETHYLZEARALENONE],0.2

# System: not listed separately
# Assay: Inhibition of MAPK
row,SMILES,IC50 [µM]
1,"COc1cc(O)c2c(c1)CCCC(O)[C@H](O)C(=O)/C=C\C[C@H](C)OC2=O (single isomer, unassigned)",0.004
